In patent US20240150377A1, “MODULATORS OF CYSTIC FIBROSIS TRANSMEMBRANE CONDUCTANCE REGULATOR” (VERTEX PHARMACEUTICALS INCORPORATED, priority 2020, published 2024):

Molecular target: T1, CFTR (Homo sapiens, UniProt P13569, DEL508-508)
T1 construct: endogenous in cells; host or cells: primary human bronchial epithelial cells from CF subjects (F508del/MF-HBE), differentiated at air-liquid interface
Assay: HBE2 assay: Ussing chamber assay of CFTR-mediated short-circuit currents
Type: cell-based
Conditions: F508del/MF-HBE cells, with 44 nM potentiator, 18-24 hours, 20% human serum
Description: Ussing Chamber Assay of CFTR-Mediated Short-Circuit Currents
After four days the apical media was removed, and the cells were grown at an air liquid interface for >14 days prior to use.
To isolate the CFTR-mediated short-circuit (ISC) current, F508del/MF-HBE grown on Costar® Snapwell™ cell culture inserts were mounted in an Ussing chamber and the transepithelial ISC was measured under voltage-clamp recording conditions (Vhold=0 mV) at 37° C. […] The CFTR-mediated ISC (μA/cm^2) for each condition was determined from the peak forskolin response to the steady-state current following inhibition.
Identification of Corrector Compounds
The activity of the CFTR corrector compounds on the CFTR-mediated ISC was determined in Ussing chamber studies as described above.

T1 sequence (P13569 with tags, fused parts or gaps DEL508-508): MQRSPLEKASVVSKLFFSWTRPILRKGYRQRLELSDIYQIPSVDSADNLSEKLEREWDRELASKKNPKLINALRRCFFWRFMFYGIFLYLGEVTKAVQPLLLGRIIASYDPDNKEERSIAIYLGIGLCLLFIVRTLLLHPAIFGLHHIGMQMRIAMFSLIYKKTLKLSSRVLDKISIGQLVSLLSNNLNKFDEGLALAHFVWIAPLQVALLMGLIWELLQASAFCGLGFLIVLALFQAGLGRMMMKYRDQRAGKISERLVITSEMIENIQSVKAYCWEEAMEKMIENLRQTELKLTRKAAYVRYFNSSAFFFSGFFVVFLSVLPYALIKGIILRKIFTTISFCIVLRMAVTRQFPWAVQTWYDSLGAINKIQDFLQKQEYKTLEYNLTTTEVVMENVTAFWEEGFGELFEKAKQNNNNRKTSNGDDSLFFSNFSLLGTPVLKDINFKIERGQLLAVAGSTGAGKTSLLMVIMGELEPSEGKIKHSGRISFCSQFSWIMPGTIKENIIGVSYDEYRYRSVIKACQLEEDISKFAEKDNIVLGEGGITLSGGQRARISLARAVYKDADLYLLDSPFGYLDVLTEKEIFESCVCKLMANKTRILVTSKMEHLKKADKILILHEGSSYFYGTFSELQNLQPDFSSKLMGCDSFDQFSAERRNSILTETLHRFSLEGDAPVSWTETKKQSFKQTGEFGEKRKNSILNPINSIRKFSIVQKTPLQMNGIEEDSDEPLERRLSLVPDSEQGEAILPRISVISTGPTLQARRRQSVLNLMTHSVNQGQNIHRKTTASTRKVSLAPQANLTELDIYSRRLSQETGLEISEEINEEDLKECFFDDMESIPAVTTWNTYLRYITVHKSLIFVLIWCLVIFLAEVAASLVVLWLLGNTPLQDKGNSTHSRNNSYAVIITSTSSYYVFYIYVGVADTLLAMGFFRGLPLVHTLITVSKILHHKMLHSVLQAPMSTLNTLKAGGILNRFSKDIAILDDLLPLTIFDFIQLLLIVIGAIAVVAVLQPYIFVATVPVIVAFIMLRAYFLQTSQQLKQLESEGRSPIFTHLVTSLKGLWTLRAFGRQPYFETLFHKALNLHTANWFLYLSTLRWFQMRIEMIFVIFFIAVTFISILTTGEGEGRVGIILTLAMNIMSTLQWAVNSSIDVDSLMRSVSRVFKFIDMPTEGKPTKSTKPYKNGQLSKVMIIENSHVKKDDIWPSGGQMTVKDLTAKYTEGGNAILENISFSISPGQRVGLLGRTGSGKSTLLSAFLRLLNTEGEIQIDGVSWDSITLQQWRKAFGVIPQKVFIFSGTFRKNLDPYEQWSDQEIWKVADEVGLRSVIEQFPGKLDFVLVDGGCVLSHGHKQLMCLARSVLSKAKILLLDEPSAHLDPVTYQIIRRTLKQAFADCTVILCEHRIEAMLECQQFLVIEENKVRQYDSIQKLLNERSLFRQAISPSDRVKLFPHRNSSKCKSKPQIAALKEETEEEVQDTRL

| HBE2 Activity at 3 μM (%) (3 μM corrector) | HBE2 Activity at 3 μM (%) (3 μM) | Compound | other results |
| --- | --- | --- | --- |
| +++ (+++ is >60+) | – | Cc1cccc(C)c1-c1cc2nc(n1)NS(=O)(=O)c1cccc(c1)C(=O)N(Cc1cncc(N3CCCC[C@H]3C)n1)[C@H](C[C@H]1CCCOC1)CO2 (stereo in doubt) [Compound 1942] | – |
| – | +++ (+++ is >60+) | CC[C@@H](C)Oc1cnc(CN2C(=O)c3cccc(c3)S(=O)(=O)Nc3nc(cc(-c4c(C)cccc4C)n3)OC[C@H]2CC2(C)CC2)nc1 [Compound 1555] | – |
| – | +++ (+++ is >60+) | Cc1cccc(C)c1-c1cc2nc(n1)NS(=O)(=O)c1cccc(c1)C(=O)N(Cc1cncc(N3CC4CC3C4)n1)[C@H](CC(C)(C)C)CO2 [Compound 1687] | – |
| +++ (+++ is >60+) | – | Cc1cccc(C)c1-c1cc2nc(n1)NS(=O)(=O)c1cccc(c1)C(=O)N(Cc1cncc(N3CCCO[C@H]4CC[C@H]43)n1)[C@H](CC(C)(C)C)CO2 (stereo in doubt) [Compound 1951] | – |
| +++ (+++ is >60+) | – | Cc1cccc(C)c1-c1cc2nc(n1)NS(=O)(=O)c1cccc(c1)C(=O)N(Cc1cncc(N3CCC[C@@H]4CC[C@@H]43)n1)[C@H](CC1CC1)CO2 [Compound 1839] | – |
| +++ (+++ is >60+) | – | Cc1cccc(C)c1-c1cc2nc(n1)NS(=O)(=O)c1cccc(c1)C(=O)N(Cc1cncc(N(C)[C@H]3C[C@@H](F)C3)n1)[C@H](COC1CC1)CO2 [Compound 1906] | – |
| +++ (+++ is >60+) | – | COC[C@@H]1CCN1c1cncc(CN2C(=O)c3cccc(c3)S(=O)(=O)Nc3nc(cc(-c4c(C)cccc4C)n3)OC[C@H]2CC(C)(C)F)n1 [Compound 1802] | – |
| +++ (+++ is >60+) | – | Cc1cccc(C)c1-c1cc2nc(n1)NS(=O)(=O)c1cccc(c1)C(=O)N(Cc1cncc(N(C)C3CCC3)n1)[C@H](CC(C)C)CCO2 [Compound 1770] | – |
| – | +++ (+++ is >60+) | Cc1cccc(C)c1-c1cc2nc(n1)NS(=O)(=O)c1cccc(c1)C(=O)N(Cc1cccc(N3CCC[C@H]3C)n1)[C@H](CC1(C)CC1)CO2 [Compound 1569] | – |
| – | +++ (+++ is >60+) | Cc1cccc(C)c1-c1cc2nc(n1)NS(=O)(=O)c1cccc(c1)C(=O)N(Cc1ncc(N3CC(C)(C)C3)cn1)[C@H](CCC1CC1)CO2 [Compound 1595] | – |
| – | +++ (+++ is >60+) | Cc1cccc(C)c1-c1cc2nc(n1)NS(=O)(=O)c1cccc(c1)C(=O)N(Cc1ncc(N3CCC(F)(F)C3)cn1)[C@H](CC1(C)CC1)CO2 [Compound 1548] | – |
| – | +++ (+++ is >60+) | CC(=O)N(C)c1cncc(CN2C(=O)c3cccc(c3)S(=O)(=O)Nc3nc(cc(-c4c(C)cccc4C)n3)OC[C@H]2CC(C)(C)C)n1 [Compound 1581] | – |
| – | +++ (+++ is >60+) | Cc1cccc(C)c1-c1cc2nc(n1)NS(=O)(=O)c1cccc(c1)C(=O)N(Cc1cncc(N(C)C3CCC3)n1)[C@H](CC1CC3(CCC3)C1)CO2 [Compound 1682] | – |
| – | +++ (+++ is >60+) | Cc1cccc(C)c1-c1cc2nc(n1)NS(=O)(=O)c1cccc(c1)C(=O)N(Cc1ncc(OC(C)C)cn1)[C@H]([C@@H](C)C(C)C)CO2 (stereo in doubt) [Compound 1573] | – |
| +++ (+++ is >60+) | – | Cc1cccc(C)c1-c1cc2nc(n1)NS(=O)(=O)c1cccc(c1)C(=O)N(Cc1cncc(N3[C@H](C)C[C@@H]3C)n1)[C@H](CC(C)(C)C)CO2 [Compound 1728] | – |
| +++ (+++ is >60+) | – | Cc1cccc(C)c1-c1cc2nc(n1)NS(=O)(=O)c1cccc(c1)C(=O)N(Cc1cncc(N3CCCC[C@H]3C)n1)[C@H](CC1CCCCC1)CO2 [Compound 1822] | – |
| – | +++ (+++ is >60+) | Cc1cccc(C)c1-c1cc2nc(n1)NS(=O)(=O)c1cccc(c1)C(=O)N(Cc1ccnc(N(C)C3CCC3)n1)[C@H](CC(C)(C)C)CO2 [Compound 1616] | – |
| +++ (+++ is >60+) | – | Cc1cccc(C)c1-c1cc2nc(n1)NS(=O)(=O)c1cccc(c1)C(=O)N(Cc1cncc(N3CCC[C@H]3C(C)C)n1)[C@H](CC1(C)CCC1)CO2 [Compound 1775] | – |
| +++ (+++ is >60+) | – | Cc1cccc(C)c1-c1cc2nc(n1)NS(=O)(=O)c1cccc(c1)C(=O)N(Cc1cncc(N(C)CC(C)C)n1)[C@H](CCC1CC1)CO2 [Compound 1717] | – |
| – | +++ (+++ is >60+) | Cc1cccc(C)c1-c1cc2nc(n1)NS(=O)(=O)c1cccc(c1)C(=O)N(Cc1cncc(N3CC[C@@H]4CC[C@@H]43)n1)[C@H](CC(C)(C)C)CO2 (single isomer, unassigned) [Compound 1314] | – |
| +++ (+++ is >60+) | – | CCC(C)(C)C[C@@H]1COc2cc(-c3c(C)cccc3C)nc(n2)NS(=O)(=O)c2cccc(c2)C(=O)N1Cc1cncc(N2CC[C@H]2C)n1 [Compound 1861] | – |

Second part, the compound before the results:

| Compound | HBE2 Activity at 3 μM (%) (3 μM corrector) | HBE2 Activity at 3 μM (%) (3 μM) | other results |
| --- | --- | --- | --- |
| Cc1cccc(C)c1-c1cc2nc(n1)NS(=O)(=O)c1cccc(c1)C(=O)N(Cc1cnc3cc(C(C)C)n(C)c3n1)[C@H](CC(C)(C)C(F)(F)F)CO2 [Compound 1836] | +++ (+++ is >60+) | – | – |
| Cc1cccc(C)c1-c1cc2nc(n1)NS(=O)(=O)c1cccc(c1)C(=O)N(Cc1cnc3ccn(CC(C)C)c3n1)[C@H](CC(C)(C)C)CO2 [Compound 1755] | +++ (+++ is >60+) | – | – |
| CCN(c1cncc(CN2C(=O)c3cccc(c3)S(=O)(=O)Nc3nc(cc(-c4c(C)cccc4C)n3)OC[C@H]2CCC(C)(C)C)n1)C1CCC1 [Compound 1808] | +++ (+++ is >60+) | – | – |
| Cc1cccc(C)c1-c1cc2nc(n1)NS(=O)(=O)c1cccc(c1)C(=O)N(Cc1cncc(N(C)C3CCC3)n1)[C@]1(CCC(C)(C)C1)CO2 (single isomer, unassigned) [Compound 1325, 12-[[6-[cyclobutyl(methyl)amino]pyrazin-2-yl]methyl]-6-(2,6-dimethylphenyl)-1′,1′-dimethyl-2,2-dioxo-spiro[9-oxa-2λ^6-thia-3,5,12,19-tetrazatricyclo[12.3.1.14,8]nonadeca-1(18),4(19),5,7,14,16-hexaene-11,3′-cyclopentane]-13-one] | +++ (+++ is >60+) | – | – |
| Cc1cccc(C)c1-c1cc2nc(n1)NS(=O)(=O)c1cccc(c1)C(=O)N(Cc1coc(N(C)C3CCC3)n1)[C@H](CC(C)(C)C)CO2 [Compound 1318, (11R)-12-[[2-[Cyclobutyl(methyl)amino]oxazol-4-yl]methyl]-6-(2,6-dimethylphenyl)-11-(2,2-dimethylpropyl)-2,2-dioxo-9-oxa-2λ^6-thia-3,5,12,19-tetrazatricyclo[12.3.1.14,8]nonadeca-1(18),4(19),5,7,14,16-hexaen-13-one] | – | +++ (+++ is >60+) | – |
| COC[C@H]1CCCCN1c1cncc(CN2C(=O)c3cccc(c3)S(=O)(=O)Nc3nc(cc(-c4c(C)cccc4C)n3)OC[C@H]2CCC(C)(C)C)n1 (stereo in doubt) [Compound 1856] | +++ (+++ is >60+) | – | – |
| Cc1cccc(C)c1-c1cc2nc(n1)NS(=O)(=O)c1cccc(c1)C(=O)N(Cc1cncc(N(C)CC(C)(C)F)n1)[C@H](CC(C)(C)C)CO2 [Compound 1759] | +++ (+++ is >60+) | – | – |
| COC(=O)N(C)CCN(C)c1cncc(CN2C(=O)c3cccc(c3)S(=O)(=O)Nc3nc(cc(-c4c(C)cccc4C)n3)OC[C@H]2CC(C)(C)C)n1 [Compound 1686] | – | +++ (+++ is >60+) | – |
| Cc1cccc(C)c1-c1cc2nc(n1)NS(=O)(=O)c1cccc(c1)C(=O)N(Cc1cncc(N(C)C3CCC3)n1)[C@@H]1CN(CC(C)(C)C)CC1O2 (stereo in doubt) [Compound 1740] | ++ (++ is 30-60%) | – | – |
| CCN(c1cccc(CN2C(=O)c3cccc(c3)S(=O)(=O)Nc3nc(cc(-c4c(C)cccc4C)n3)OC[C@H]2CC(C)(C)C)n1)C1CCC1 [Compound 1587] | – | +++ (+++ is >60+) | EC50: < 1000 nM; Emax (read-out: HBE2 Max activity (%)): > 60% |
| Cc1cccc(C)c1-c1cc2nc(n1)NS(=O)(=O)c1cccc(c1)C(=O)N(Cc1cncc(N(C)C3CCC3)n1)[C@H](c1ccccc1)CO2 [Compound 1731] | +++ (+++ is >60+) | – | – |
| Cc1cccc(C)c1-c1cc2nc(n1)NS(=O)(=O)c1cccc(n1)C(=O)N(Cc1cncc(N(C)C3CCC3)n1)[C@H](CC(C)(C)C)CO2 [Compound 1832] | +++ (+++ is >60+) | – | – |
| Cc1cccc(C)c1-c1cc2nc(n1)NS(=O)(=O)c1cccc(c1)C(=O)N(Cc1cnc(C)c(N(C)CC(C)C)n1)[C@H](CC(C)(C)C)CO2 [Compound 1322, (11R)-6-(2,6-Dimethylphenyl)-11-(2,2-dimethylpropyl)-12-[[6-[isobutyl(methyl)amino]-5-methyl-pyrazin-2-yl]methyl]-2,2-dioxo-9-oxa-2λ^6-thia-3,5,12,19-tetrazatricyclo[12.3.1.14,8]nonadeca-1(18),4(19),5,7,14,16-hexaen-13-one] | +++ (+++ is >60+) | – | – |
| Cc1cccc(C)c1-c1cc2nc(n1)NS(=O)(=O)c1cccc(c1)C(=O)N(Cc1cncc(N3CC(=O)N(C)C[C@H]3C)n1)[C@H](CC(C)(C)C)CO2 [Compound 1644] | – | +++ (+++ is >60+) | – |
| Cc1cccc(C)c1-c1cc2nc(n1)NS(=O)(=O)c1cccc(c1)C(=O)N(Cc1cncc(N3CCCC3c3ccnn3C)n1)[C@H](CC(C)(C)C)CO2 (stereo partly drawn) [Compound 1605] | – | +++ (+++ is >60+) | – |
| Cc1cccc(C)c1-c1cc2nc(n1)NS(=O)(=O)c1cccc(c1)C(=O)N(Cc1ccn([C@H](C)C3CCOCC3)n1)[C@H](CC(C)(C)C)CO2 (stereo in doubt) [Compound 1456] | – | +++ (+++ is >60+) | – |
